This note sets out measurements from ChEMBL document CHEMBL3826976, “New Insights into Human 17β-Hydroxysteroid Dehydrogenase Type 14: First Crystal Structures in Complex with a Steroidal Ligand and with a Potent Nonsteroidal Inhibitor” (J Med Chem, 2016).

In the assay the target is T1, 17-beta-hydroxysteroid dehydrogenase 14 (Homo sapiens) (UniProt Q9BPX1).
T1 sequence (whole entry): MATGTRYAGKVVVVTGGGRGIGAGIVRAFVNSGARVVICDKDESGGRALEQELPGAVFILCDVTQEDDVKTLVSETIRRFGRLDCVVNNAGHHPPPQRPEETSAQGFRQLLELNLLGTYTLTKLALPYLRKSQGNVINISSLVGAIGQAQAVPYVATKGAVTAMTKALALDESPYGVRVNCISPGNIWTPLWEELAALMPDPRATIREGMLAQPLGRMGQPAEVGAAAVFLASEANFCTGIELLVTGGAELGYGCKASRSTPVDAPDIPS
Description: Binding affinity to human 17-beta-HSD14 assessed as change in melting temperature at 0.25 mM by thermal shift assay

As for `C[C@]12CC[C@@H]3c4ccc(O)cc4CC[C@H]3[C@@H]1CCC2=O`, the shift in melting temperature (ΔTm) was 1.5 °C. The same measure for `C[C@]12CC[C@@H]3c4ccc(O)cc4CC[C@H]3[C@@H]1CC[C@@H]2O`: 1.5 °C.
